24 molecules from US8618289B2 (Ambit Biosciences Corporation, priority 2008, dated 2013) can be followed below.

For assay [1], the system named is MEK1 phosphorylation in the A375 human melanoma cell line. As to the kind of experiment: cells. To be noted: A-375, read-out: pMEK IC50.
Protocol: A375 cells (from American Type Culture Collection) were plated at 50,000 cells per well in DMEM (Mediatech) with 10% fetal bovine serum (Omega Scientific) into a 96 well plate and incubated overnight in a 37° C. incubator with 10% CO2. The cells were then washed with PBS and the medium replaced with 0.5% FBS for incubation overnight. […] The cells were incubated with compound or control for two hours at 37° C. The compound solution was aspirated off and the cells washed with cold PBS. […] The plate was centrifuged for 30 minutes to pellet out the cell debris. The cleared lysates were transferred to a 96-well Nunc plate and the ELISA protocol described by the manufacturer in Catalog #KHO0321 or KHO0291 was followed.
Assay [2] deals with RAF kinases (Homo sapiens, UniProt P15056). The assay is described as follows: biochemical.
Protocol: (§1) Competition binding assays used herein were developed, validated and performed as described in Fabian et al., Nature Biotechnology 2005, 23, 329-336. […] The liganded beads were blocked with excess biotin and washed with blocking buffer (SeaBlock (Pierce), 1% BSA, 0.05% Tween 20, 1 mM DTT) to remove unbound ligand and to reduce non-specific binding. […] Test compounds were prepared as 100× stocks in DMSO and rapidly diluted into the aqueous environment. DMSO was added to control assays lacking a test compound. Primary screen interactions were performed in polypropylene 384-well plates in a final volume of 34 μt, while Kd determinations were performed in polystyrene 96-well plates in a final volume of 135 pt. […] The kinase concentration in the eluates was measured by quantitative PCR. Each kinase was tested individually against each compound. Kds were determined using eleven serial threefold dilutions. A selectivity score, which is a quantitative measure of selectivity of a compound against a panel of enzymes, may be calculated for a compound by dividing the number of enzymes for which a compound meets a set criteria, (for example, a binding constant of 100 nM or less), by the total number of enzymes tested. […] (Note, for those compounds tested in a larger kinase panel, as indicated by an asterisk (*) next to the S35 score, the divisor is 321 (i.e. the larger panel contains 321 distinct kinases, excluding mutant variants.)).
Assay [3] concerns the target RAF kinases (Homo sapiens, UniProt P04049). The assay is described as follows: biochemical.
Protocol: as §1
For assay [4], the system named is A375 cells. As to the kind of experiment: cells. The note with it: Homo sapiens, A-375, read-out: A375 Viability EC50.

Counter-ions that a name gives are not always drawn.

RAF kinases (Homo sapiens, UniProt P15056), sequence (P15056 whole entry): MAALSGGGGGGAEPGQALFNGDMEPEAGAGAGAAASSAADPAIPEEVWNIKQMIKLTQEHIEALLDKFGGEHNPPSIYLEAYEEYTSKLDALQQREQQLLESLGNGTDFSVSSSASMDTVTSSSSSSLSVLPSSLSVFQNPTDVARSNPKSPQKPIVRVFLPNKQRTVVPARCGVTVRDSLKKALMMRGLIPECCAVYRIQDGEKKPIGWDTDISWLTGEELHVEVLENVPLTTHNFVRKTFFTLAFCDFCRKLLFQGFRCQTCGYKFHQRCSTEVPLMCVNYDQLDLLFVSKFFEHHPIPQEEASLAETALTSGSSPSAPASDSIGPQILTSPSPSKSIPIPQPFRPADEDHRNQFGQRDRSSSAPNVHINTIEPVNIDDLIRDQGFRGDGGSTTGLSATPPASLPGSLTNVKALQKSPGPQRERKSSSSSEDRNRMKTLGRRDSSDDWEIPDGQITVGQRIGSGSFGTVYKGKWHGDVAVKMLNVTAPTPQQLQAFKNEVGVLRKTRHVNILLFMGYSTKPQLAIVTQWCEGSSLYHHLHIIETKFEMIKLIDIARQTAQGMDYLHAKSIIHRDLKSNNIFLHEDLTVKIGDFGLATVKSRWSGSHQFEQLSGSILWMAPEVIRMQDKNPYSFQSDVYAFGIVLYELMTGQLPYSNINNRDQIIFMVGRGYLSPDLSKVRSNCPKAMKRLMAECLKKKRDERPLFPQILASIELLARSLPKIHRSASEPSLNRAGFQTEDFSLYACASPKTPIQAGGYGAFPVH
RAF kinases (Homo sapiens, UniProt P04049), sequence (P04049 whole entry): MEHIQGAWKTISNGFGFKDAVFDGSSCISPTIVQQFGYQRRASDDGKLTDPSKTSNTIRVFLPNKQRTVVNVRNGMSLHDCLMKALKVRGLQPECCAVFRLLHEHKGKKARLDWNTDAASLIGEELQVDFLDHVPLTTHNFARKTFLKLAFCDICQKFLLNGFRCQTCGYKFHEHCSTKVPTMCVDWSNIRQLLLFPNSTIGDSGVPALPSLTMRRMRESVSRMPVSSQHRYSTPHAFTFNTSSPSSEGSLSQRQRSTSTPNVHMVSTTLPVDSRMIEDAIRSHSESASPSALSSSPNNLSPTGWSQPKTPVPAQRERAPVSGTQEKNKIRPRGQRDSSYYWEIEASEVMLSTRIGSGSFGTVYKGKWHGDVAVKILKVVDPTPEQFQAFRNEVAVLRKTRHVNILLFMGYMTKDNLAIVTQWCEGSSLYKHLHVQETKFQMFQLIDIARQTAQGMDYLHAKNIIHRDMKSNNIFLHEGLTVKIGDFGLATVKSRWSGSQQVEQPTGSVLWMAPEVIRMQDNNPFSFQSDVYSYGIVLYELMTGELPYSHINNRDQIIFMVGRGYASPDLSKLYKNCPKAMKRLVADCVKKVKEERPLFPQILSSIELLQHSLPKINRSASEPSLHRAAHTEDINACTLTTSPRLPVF

In the case of `COc1cc2ncnc(Sc3cccc(NC(=O)Nc4cc(C(C)(C)C)on4)c3)c2cc1OC` [Ex 46, 1-(5-tert-butylisoxazol-3-yl)-3-(3-(6,7-dimethoxyquinazolin-4-ylthio)phenyl)urea], the IC50 (commonly the concentration that gives 50% inhibition) in assay [1] is less than 250 nM. Also, the results for the Kd in assay [2] and in assay [3] were 500 to 1000 nM and 250 to 500 nM, respectively. In addition, the EC50 (as a rule, the concentration needed to bring the measured effect to its halfway point) in assay [4] lay in the range of 250 to 500 nM.

Consider `COc1cc2ncnc(Oc3cccc(NC(=O)Nc4ccc(C(C)(C)C)cc4)c3)c2cc1OC` [Ex 173, 1-(4-tert-butylphenyl)-3-(3-(6,7-dimethoxyquinazolin-4-yloxy)phenyl)urea], for which the IC50 in assay [1] lay in the range of 250 to 500 nM. Also, the Kd (as a rule, a measure of binding affinity in units of concentration) in assay [2] fell in the range of 500 to 1000 nM; in assay [3] it was 250 to 500 nM. In addition, in assay [4], the EC50 was more than 1000 nM.

For `COc1cc2ncnc(Oc3cccc(NC(=O)Nc4cc(C(C)(C)C)on4)c3)c2cc1OCCCN1CCN(S(C)(=O)=O)CC1` [Ex 25, 1-(5-tert-butylisoxazol-3-yl)-3-(3-(7-methoxy-6-(3-(4-(methylsulfonyl)piperazin-1-yl)propoxy)quinazolin-4-yloxy)phenyl)urea], the IC50 in assay [1] is less than 250 nM. Moreover, the Kd in assay [2] and in assay [3] was 250 to 500 nM in each case. For the same molecule, the EC50 in assay [4] was less than 250 nM.

For `COc1cc2ncnc(Oc3cccc(NC(=O)Nc4ccc(Cl)c(C(F)(F)F)c4)c3)c2cc1OC` [Ex 176, 1-(4-chloro-3-(trifluoromethyl)phenyl)-3-(3-(6,7-dimethoxyquinazolin-4-yloxy)phenyl)urea], the IC50 in assay [1] is 250 to 500 nM. In addition, the dissociation constant Kd lay within 500 to 1000 nM in assay [2] and 250 to 500 nM in assay [3]. Also, the EC50 in assay [4] is more than 1000 nM.

On to `COc1cc2c(Oc3cccc(NC(=O)Nc4cc(C(C)(C)C)on4)c3)ncnc2cc1OCCN1CCC(CO)CC1` [Ex 37, 1-(5-tert-butyl-isoxazol-3-yl)-3-(3-{7-[2-(4-hydroxymethyl-piperidin-1-yl)-ethoxy]-6-methoxy-quinazolin-4-yloxy}-phenyl)-urea], for which the 50% inhibitory concentration (IC50) in assay [1] is less than 250 nM. For the same molecule, the Kd in assay [2] and in assay [3] was 250 to 500 nM throughout. Besides, the EC50 in assay [4] lay in the range of 250 to 500 nM.

On to `COc1cc2c(Oc3cccc(NC(=O)Nc4cc(C(C)(C)C)on4)c3)ncnc2cc1OCCCN1CCC(CO)CC1` [Ex 29], for which the IC50 in assay [1] is less than 250 nM. For the same molecule, the Kd in assay [2] and in assay [3] was 250 to 500 nM in each case. In addition, the EC50 in assay [4] is less than 250 nM.

In the case of `COc1cc2c(Sc3cccc(NC(=O)Nc4cc(C(C)(C)C)on4)c3)ncnc2cc1OCCN1CCN(C)CC1` [Ex 83, 1-(5-tert-butylisoxazol-3-yl)-3-(3-(6-methoxy-7-(2-(4-methylpiperazin-1-yl)ethoxy)quinazolin-4-ylthio)phenyl)urea], the concentration for half-maximal inhibition (IC50) in assay [1] was less than 250 nM. Besides, the Kd in assay [2] and in assay [3] was 250 to 500 nM in each case. Moreover, the EC50 in assay [4] was more than 1000 nM.

On to `COCCOc1cc2ncnc(Oc3cccc(NC(=O)Nc4cc(C(C)(C)C)no4)c3)c2cc1OC` [Ex 202, 1-(3-tert-butylisoxazol-5-yl)-3-(3-(6-methoxy-7-(2-methoxyethoxy)quinazolin-4-yloxy)phenyl)urea], for which, in assay [1], the IC50 is less than 250 nM. Further, the dissociation constant Kd in assay [2] and in assay [3] was 250 to 500 nM each time. Moreover, the EC50 in assay [4] was more than 1000 nM.

As to `COc1cc2ncnc(Oc3cccc(NC(=O)Nc4cc(C(C)(C)C)on4)c3)c2cc1OC[C@H](O)CN1CCN(C)CC1` [Ex 112, (R)-1-(5-tert-butylisoxazol-3-yl)-3-(3-(6-(2-hydroxy-3-(4-methylpiperazin-1-yl)propoxy)-7-methoxyquinazolin-4-yloxy)phenyl)urea], the IC50 in assay [1] lay in the range of 250 to 500 nM. Further, the Kd in assay [2] is 500 to 1000 nM; in assay [3], 250 to 500 nM. Besides, the EC50 in assay [4] is 500 to 1000 nM.

For `COc1cc2ncnc(Sc3cccc(NC(=O)Nc4cc(C(C)(C)C)on4)c3)c2cc1OCCN1CCC(CO)CC1` [Ex 66, 1-(5-tert-butylisoxazol-3-yl)-3-(3-(6-(2-(4-(hydroxymethyl)piperidin-1-yl)ethoxy)-7-methoxyquinazolin-4-ylthio)phenyl)urea], the IC50 in assay [1] is less than 250 nM. Besides, the Kd in assay [2] and in assay [3] was 500 to 1000 nM throughout. Moreover, in assay [4], the EC50 is more than 1000 nM.

As to `COc1cc2ncnc(Sc3cccc(NC(=O)Nc4cc(C(C)(CF)CF)no4)c3)c2cc1OC` [Ex 160, 1-[3-(1,3-difluoro-2-methylpropan-2-yl)isoxazol-5-yl]-3-[3-(6,7-dimethoxyquinazolin-4-ylthio)phenyl]urea], the IC50 in assay [1] was less than 250 nM. Moreover, the Kd in assay [2] was 500 to 1000 nM; in assay [3] it was 250 to 500 nM. For the same molecule, the EC50 in assay [4] is more than 1000 nM.

Regarding `COc1cc2c(Sc3cccc(NC(=O)Nc4cc(C(C)(C)C)on4)c3)ncnc2cc1OCCCN1CCCCC1` [Ex 76, 1-(5-tert-butylisoxazol-3-yl)-3-(3-(6-methoxy-7-(3-(piperidin-1-yl)propoxy)quinazolin-4-ylthio)phenyl)urea], the concentration for half-maximal inhibition (IC50) in assay [1] was less than 250 nM. The figures for the dissociation constant Kd in assay [2] and in assay [3] were 250 to 500 nM and 500 to 1000 nM, respectively. Also, the EC50 in assay [4] is more than 1000 nM.

Regarding `COc1cc2ncnc(Sc3cccc(NC(=O)Nc4cc(C(C)(C)C)on4)c3)c2cc1OCCCN1CCN(C)CC1` [Ex 59, 1-(5-tert-butylisoxazol-3-yl)-3-(3-(7-methoxy-6-(3-(4-methylpiperazin-1-yl)propoxy)quinazolin-4-ylthio)phenyl)urea], the IC50 in assay [1] was less than 250 nM. Moreover, the Kd in assay [2] and in assay [3] was 250 to 500 nM each time. In addition, the 50% effective concentration (EC50) in assay [4] was more than 1000 nM.

On to `COCCOc1cc2c(Oc3cccc(NC(=O)Nc4cc(C(C)(C)C)on4)c3)ncnc2cc1OC` [Ex 15, 1-(5-tert-butylisoxazol-3-yl)-3-{3-[7-methoxy-6-(2-methoxyethoxy)quinazolin-4-yloxy]phenyl}urea hydrochloride], for which the IC50 in assay [1] is less than 250 nM. For the same molecule, the Kd in assay [2] and in assay [3] was 250 to 500 nM throughout. The EC50 in assay [4] is less than 250 nM.

`COc1cc2ncnc(Oc3cccc(NC(=O)Nc4cc(C(C)(C)C)on4)c3)c2cc1OCCCN1CCN(C)CC1` [Ex 21, 1-(5-tert-butylisoxazol-3-yl)-3-(3-(7-methoxy-6-(3-(4-methylpiperazin-1-yl)propoxy)quinazolin-4-yloxy)phenyl)urea]: the IC50 in assay [1] was less than 250 nM. Also, the Kd in assay [2] and in assay [3] was 250 to 500 nM each time. In assay [4], the EC50 lay within 250 to 500 nM.

In the case of `COc1cc2c(Oc3cccc(NC(=O)Nc4cc(C(C)(C)C)on4)c3)ncnc2cc1OCCCN1CCOCC1` [Ex 27, 1-(5-tert-butylisoxazol-3-yl)-3-(3-(6-methoxy-7-(3-morpholinopropoxy)quinazolin-4-yloxy)phenyl)urea], in assay [1], the IC50 was less than 250 nM. Besides, the Kd in assay [2] and in assay [3] was 250 to 500 nM throughout. Moreover, the EC50 in assay [4] is less than 250 nM.

Regarding `COc1cc2ncnc(Sc3cccc(NC(=O)Nc4cc(C(C)(C)C)on4)c3)c2cc1OCCN1CCN(CCO)CC1` [Ex 68, 1-(5-tert-butylisoxazol-3-yl)-3-(3-(6-(2-(4-(2-hydroxyethyl)piperazin-1-yl)ethoxy)-7-methoxyquinazolin-4-ylthio)phenyl)urea], the concentration for half-maximal inhibition (IC50) in assay [1] was less than 250 nM. Also, the Kd in assay [2] and in assay [3] was 250 to 500 nM each time. Moreover, in assay [4], the half-maximal effective concentration (EC50) was in the range of 500 to 1000 nM.

Regarding `COCCOc1cc2ncnc(Sc3cccc(NC(=O)Nc4cc(C(C)(C)C)on4)c3)c2cc1OC` [Ex 52, 1-(5-tert-butylisoxazol-3-yl)-3-{3-[6-methoxy-7-(2-methoxyethoxy)quinazolin-4-ylthio]phenyl}urea hydrochloride], the concentration for half-maximal inhibition (IC50) in assay [1] is less than 250 nM. For the same molecule, the Kd in assay [2] and in assay [3] was 250 to 500 nM each time. Besides, the EC50 in assay [4] fell in the range of 500 to 1000 nM.

As to `COc1cc2ncnc(Sc3cccc(NC(=O)Nc4cc(C(C)(C)C)on4)c3)c2cc1OCCCN1CCN(S(C)(=O)=O)CC1` [Ex 60, 1-(5-tert-butylisoxazol-3-yl)-3-(3-(7-methoxy-6-(3-(4-(methylsulfonyl)piperazin-1-yl)propoxy)quinazolin-4-ylthio)phenyl) urea], the concentration for half-maximal inhibition (IC50) in assay [1] was less than 250 nM. For the same molecule, the Kd in assay [2] lay within 500 to 1000 nM; in assay [3] it was 250 to 500 nM. For the same molecule, the EC50 in assay [4] was 250 to 500 nM.

Turning to `COc1cccc(NC(=O)Nc2cccc(Oc3ncnc4cc(OC)c(OC)cc34)c2)c1` [Ex 178, 1-(3-(6,7-dimethoxyquinazolin-4-yloxy)phenyl)-3-(3-methoxyphenyl)urea], in assay [1], the IC50 was more than 1000 nM. Moreover, the Kd fell in the range of 500 to 1000 nM in assay [2] and 250 to 500 nM in assay [3]. In addition, the EC50 in assay [4] is more than 1000 nM.

As for `COCCOc1ccc2c(Oc3cccc(NC(=O)Nc4cc(C(C)(C)C)on4)c3)ncnc2c1` [Ex 43, 1-(5-tert-butylisoxazol-3-yl)-3-(3-(7-(2-methoxyethoxy)quinazolin-4-yloxy)phenyl)urea], in assay [1], the IC50 is 250 to 500 nM. The Kd in assay [2] was in the range of 500 to 1000 nM; in assay [3], 250 to 500 nM. The EC50 in assay [4] is more than 1000 nM.

`COc1cc2ncnc(Oc3cccc(NC(=O)Nc4cc(C(C)(C)C)on4)c3)c2cc1OCCCN1CCCCC1` [Ex 23, 1-(5-tert-butylisoxazol-3-yl)-3-(3-(7-methoxy-6-(3-(piperidin-1-yl)propoxy)quinazolin-4-yloxy)phenyl)urea]: the IC50 in assay [1] was less than 250 nM. In addition, the Kd in assay [2] and in assay [3] was 500 to 1000 nM throughout. In assay [4], the concentration for a half-maximal effect (EC50) was 500 to 1000 nM.

Consider `COc1cc2c(Oc3cccc(NC(=O)Nc4cc(C(C)(C)C)on4)c3)ncnc2cc1O` [Ex 95, 1-(5-tert-butylisoxazol-3-yl)-3-(3-(7-hydroxy-6-methoxyquinazolin-4-yloxy)phenyl)urea], for which, in assay [1], the IC50 is less than 250 nM. Also, the Kd in assay [2] fell in the range of 500 to 1000 nM; in assay [3], 250 to 500 nM. Also, in assay [4], the EC50 is less than 250 nM.

With `COc1cc2c(Sc3cccc(NC(=O)Nc4cc(C(C)(C)C)on4)c3)ncnc2cc1OCCCN1CCN(S(C)(=O)=O)CC1` [Ex 77, 1-(5-tert-butylisoxazol-3-yl)-3-(3-(6-methoxy-7-(3-(4-(methylsulfonyl)piperazin-1-yl)propoxy)quinazolin-4-ylthio)phenyl)urea], the IC50 in assay [1] is less than 250 nM. In addition, the Kd in assay [2] and in assay [3] was 500 to 1000 nM in each case. Moreover, the half-maximal effective concentration (EC50) in assay [4] was in the range of 250 to 500 nM.
